pEC50: −log10 of the molar value.
Tests used:
rhinovirus A2 [1] = assay: Antiviral activity against human rhinovirus 2 assessed as reduction in viral infection in human HeLa H1 cells pretreated for 1 to 2 hrs with virus followed by cell addition measured after 48 hrs by Celltiter-Glo reagent based assay; assay type: functional, organism-based
rhinovirus A16 [2] = assay: Antiviral activity against human rhinovirus 16 assessed as reduction in viral infection in human HeLa H1 cells pretreated for 1 to 2 hrs with virus followed by cell addition measured after 48 hrs by Celltiter-Glo reagent based assay; assay type: functional, organism-based
[3] = Antiviral activity against human rhinovirus 17 assessed as reduction in viral infection in human HeLa H1 cells pretreated for 1 to 2 hrs with virus followed by cell addition measured after 48 hrs by Celltiter-Glo reagent based assay; assay type: functional, Human rhinovirus B17
[4] = Antiviral activity against human rhinovirus 8 assessed as reduction in viral infection in human HeLa H1 cells pretreated for 1 to 2 hrs with virus followed by cell addition measured after 48 hrs by Celltiter-Glo reagent based assay; assay type: functional, Human rhinovirus A8; conditions: Rhinovirus A
rhinovirus B14 = assay: Antiviral activity against human rhinovirus 14 assessed as reduction in viral infection in human HeLa H1 cells pretreated for 1 to 2 hrs with virus followed by cell addition measured after 48 hrs by Celltiter-Glo reagent based assay; assay type: functional, organism-based; conditions: Rhinovirus B
rhinovirus A25 = assay: Antiviral activity against human rhinovirus 25 assessed as reduction in viral infection in human HeLa H1 cells pretreated for 1 to 2 hrs with virus followed by cell addition measured after 48 hrs by Celltiter-Glo reagent based assay; assay type: functional, organism-based; conditions: Rhinovirus A
rhinovirus A41 = assay: Antiviral activity against human rhinovirus 41 assessed as reduction in viral infection in human HeLa H1 cells pretreated for 1 to 2 hrs with virus followed by cell addition measured after 48 hrs by Celltiter-Glo reagent based assay; assay type: functional, organism-based; conditions: Rhinovirus A
rhinovirus A85 = assay: Antiviral activity against human rhinovirus 85 assessed as reduction in viral infection in human HeLa H1 cells pretreated for 1 to 2 hrs with virus followed by cell addition measured after 48 hrs by Celltiter-Glo reagent based assay; assay type: functional, organism-based; conditions: Rhinovirus A
[5] = Antiviral activity against human rhinovirus 100 assessed as reduction in viral infection in human HeLa H1 cells pretreated for 1 to 2 hrs with virus followed by cell addition measured after 48 hrs by Celltiter-Glo reagent based assay; assay type: functional, Human rhinovirus A100; conditions: Rhinovirus A
[6] = Antiviral activity against human rhinovirus 7 assessed as reduction in viral infection in human HeLa H1 cells pretreated for 1 to 2 hrs with virus followed by cell addition measured after 48 hrs by Celltiter-Glo reagent based assay; assay type: functional, Human rhinovirus A7; conditions: Rhinovirus A
rhinovirus A2 [7] = assay: Antiviral activity against human rhinovirus 2 assessed as reduction in viral infection in human HeLa H1 cells after 2 to 5 days by XTT reduction assay; assay type: functional, organism-based; conditions: Rhinovirus A
rhinovirus A16 [8] = assay: Antiviral activity against human rhinovirus 16 assessed as reduction in viral infection in human HeLa H1 cells after 2 to 5 days by XTT reduction assay; assay type: functional, organism-based; conditions: Rhinovirus A
[9] = Antiviral activity against human rhinovirus 17 assessed as reduction in viral infection in human HeLa H1 cells after 2 to 5 days by XTT reduction assay; assay type: functional, cell-based, Human rhinovirus B17; conditions: Rhinovirus B

SMILES	pEC50 (rhinovirus A2 [1]; Rhinovirus A, HeLa H1)	pEC50 (rhinovirus A16 [2]; Rhinovirus A, HeLa H1)	pEC50 ([3]; Rhinovirus B, HeLa H1)	pEC50 [4]	pEC50 (rhinovirus B14)	pEC50 (rhinovirus A25)	pEC50 (rhinovirus A41)	pEC50 (rhinovirus A85)	pEC50 [5]	pEC50 [6]	pEC50 (rhinovirus A2 [1]; hela h1)	pEC50 (rhinovirus A16 [2]; hela h1)	pEC50 ([3]; hela h1)	pEC50 (rhinovirus A2 [7])	pEC50 (rhinovirus A16 [8])	pEC50 [9]
CCOC(=O)/C=C/[C@H](C[C@@H]1CCNC1=O)NC(=O)[C@@H]1C[C@@H](Cc2ccccc2)CN1C(=O)[C@@H](NC(=O)c1cc(C)on1)C(C)C	6.52	7.33	6.72	–	–	–	–	–	–	–	–	–	–	–	–	–
CCOC(=O)/C=C/[C@H](C[C@@H]1CCNC1=O)NC(=O)[C@@H]1CC[C@@H](c2ccccc2)N1C(=O)[C@@H](NC(=O)c1cc(C)on1)C(C)C	5.72	6.59	6.82	–	–	–	–	–	–	–	–	–	–	–	–	–
CCOC(=O)/C=C/[C@H](C[C@@H]1CCNC1=O)NC(=O)[C@@H]1C[C@@H](C2CCCCC2)CN1C(=O)[C@@H](NC(=O)c1cc(C)on1)C(C)C	7.34	7.82	8.15	7.66	7.96	8.05	7.05	7.03	7.10	7.33	–	–	–	–	–	–
CCOC(=O)/C=C/[C@H](C[C@@H]1CCNC1=O)NC(=O)[C@@H]1C[C@@H](c2ccccc2)CN1C(=O)[C@@H](NC(=O)c1cc(C)on1)C(C)C	6.85	7.62	7.96	7.43	7.89	7.72	6.89	6.60	6.96	7.09	–	–	–	–	–	–
CCOC(=O)/C=C/[C@H](C[C@@H]1CCNC1=O)NC(=O)[C@@H]1CCCN1C(=O)[C@@H](NC(=O)c1cc(C)on1)C(C)C	5.86	6.40	6.64	6.23	6.33	5.72	5.84	5.38	5.74	5.89	–	–	–	–	–	–
CCOC(=O)/C=C/[C@H](C[C@@H]1CCNC1=O)NC(=O)[C@@H]1C[C@@H](CC#N)CN1C(=O)[C@@H](NC(=O)c1cc(C)on1)C(C)C	6.37	6.70	6.30	–	–	–	–	–	–	–	–	–	–	–	–	–
CCOC(=O)/C=C/[C@H](C[C@@H]1CCNC1=O)NC(=O)[C@@H]1C[C@@H](Oc2ccccc2)CN1C(=O)[C@@H](NC(=O)c1cc(C)on1)C(C)C	6.57	7.23	6.59	–	–	–	–	–	–	–	–	–	–	–	–	–
CCOC(=O)/C=C/[C@H](C[C@@H]1CCNC1=O)NC(=O)[C@@H]1[C@@H](c2ccccc2)CCN1C(=O)[C@@H](NC(=O)c1cc(C)on1)C(C)C	5.08	5.52	6.15	5.46	5.60	5.35	5.35	5.03	5.19	5.08	–	–	–	–	–	–
CCOC(=O)/C=C/[C@H](C[C@@H]1CCNC1=O)NC(=O)[C@@H]1[C@@H](c2ccccc2)CN1C(=O)[C@@H](NC(=O)c1cc(C)on1)C(C)C (stereo in doubt; 10)	–	–	–	6.77	7.04	7.00	6.28	5.94	6.33	6.38	6.52	6.52	7.05	–	–	–
CCOC(=O)/C=C/[C@H](C[C@@H]1CCNC1=O)NC(=O)[C@@H]1[C@@H](c2ccccc2)CN1C(=O)[C@@H](NC(=O)c1cc(C)on1)C(C)C (stereo in doubt; 11)	–	–	–	–	–	–	–	–	–	–	< 4.30	< 4.30	< 4.30	–	–	–
CCOC(=O)/C=C/[C@H](C[C@@H]1CCNC1=O)NC(=O)[C@@H](CC(=O)[C@@H](NC(=O)c1cc(C)on1)C(C)C)Cc1ccc(F)cc1 [RUPINTRIVIR]	–	–	–	–	–	–	–	–	–	–	–	–	–	7.92	7.85	7.85

From ChEMBL document CHEMBL3813594, “Design and structure-activity relationships of novel inhibitors of human rhinovirus 3C protease” (Bioorg Med Chem Lett, 2016)
